Patent US5140044A, “UCN-1028D derivatives” (Kyowa Hakko Kogyo Co., Ltd., priority 1989, dated 1992)
≈ marks a conversion by molar mass, not a printed value. Like-named read-outs stand apart in the source and are kept apart here.

Tests used:
[1] = test system: BALB 3T3/H-ras; assay: Anti-tumor activity: growth inhibition of BALB 3T3 cells transformed with H-ras (Giemsa staining); type: cell-based; details: for IC50: Mus musculus, BALB/3T3, 72 h, read-out: IC50 BALB 3T3/H-ras Inhibitory Activity
Method: The anti-tumor activity was determined using BALB 3T3 cells transformed with the carcinogenic gene H-ras (hereafter referred to as BALB 3T3/H-ras).
BALB 3T3/H-ras cells were suspended in a medium comprising DME medium (manufactured by Nissui Pharmaceutical Co., Ltd.) and 10% fetal calf serum (hereafter referred to as medium A) to a concentration of 3.0×10^4 /cells ml. The cell suspension thus prepared was put into wells of a 96-well microtiter plate in an amount of 0.1 ml per well. After culturing at 37° C. for 20 hours in a CO2 -incubator, 0.1 ml each of a test solution appropriately diluted with medium A was added to each well. The cells were further cultured at 37° C. for 72 hours in the CO2 -incubator and the culture supernatant was removed. After being washed once with physiological saline, the residue was treated with 0.1 ml of methanol for 10 minutes to fix the cells. Thereafter, the cells were stained with 0.1 ml of Giemsa staining solution [Giemsa staining stock solution (Merck Art 9204; manufactured by Merck Inc.) : physiological saline=1 : 10] for 5 minutes. After the staining solution was removed, the residue was washed once with 0.2 ml of water. The pigment was extracted with 0.2 ml of 0.1 N hydrochloric acid and the absorbance at 620 nm was measured with a microplate reader. By comparing the absorbance of untreated cells with those of the cells treated with the test compound at known concentrations, the concentration of the test compound at which the growth of the cells is inhibited by 50% (IC50) was calculated.

[2] = target: Protein Kinase C; assay: Protein kinase C inhibitory activity (method of Kikkawa et al.; crude enzyme from rat brain, Histone Type II S phosphorylation); type: biochemical; details: crude enzyme partially purified from rat brain; [γ-32P]ATP, 30° C., 3 minutes, pH 7.5
Method: Protein kinase C inhibitory activity
The protein kinase C inhibitory activity was measured by the method of Kikkawa, et al. [Journal of Biological Chemistry, 257, 13341 (1982)].
That is, 10 μl of a test solution containing a UCN-1028D derivative was added to 250 μl of a solution containing 2.5 μmoles of magnesium acetate, 50 μg of Histone Type II S (manufactured by Sigma Co., Ltd.), 20 μg of phosphatidyl serine, 0.8 μg of diolein, 25 nmoles of CaCl2, 5 μg of crude enzyme (partially purified from rat brain according to the method of Kikkawa, et al.) and 5 μmoles of Tris-hydrochloride buffer (pH 7.5), followed by incubation at 30° C. for 3 minutes. Then, phosphorylation was initiated by addition of 1.25 nmoles of [γ-^32 P]ATP (5 to 10×10^3 cpm/nmole), followed by incubation at 30° C. for 3 minutes The reaction was stopped by adding 25% trichloroacetic acid (TCA), and the reaction solution was filtered through a cellulose acetate membrane (pore size: 0.45 μm) (manufactured by Toyo Filter Paper Co., Ltd.). After the membrane was washed four times with 5% TCA, radioactivity remaining on the membrane was measured. As a control, the same procedure as above was repeated without addition of the test solution and radioactivity was likewise measured. The concentration of the test solution showing 50% inhibition as compared with the control was expressed as IC50.

[3] = growth inhibition, 72 hours, 37° C., Giemsa staining, absorbance at 620 nm

| SMILES | IC50 [1] [µg/mL] | IC50 Protein Kinase C Inhibitory Activity [2] [µg/mL] | IC50 BALB 3T3/H-ras Inhibitory Activity [1, 3] [µg/mL] | IC50 [1, 3] [µg/mL] |
| --- | --- | --- | --- | --- |
| COc1ccc(C(=O)O[C@H](C)Cc2c(OC)c(=O)c3c(O)cc(OC)c4c5c(OC)cc(O)c6c(=O)c(OC)c(C[C@@H](C)OC(=O)c7ccc(OC)cc7)c(c2c34)c65)cc1 [Compound 27, 14,17-bis-O-p-methoxybenzoyl UCN-1028D] | 0.026 (≈ 0.0318 µM) | 0.05 (≈ 0.0611 µM) | – | – |
| COC(=O)c1ccc(C(=O)O[C@H](C)Cc2c(OC)c(=O)c3c(O)cc(OC)c4c5c(OC)cc(O)c6c(=O)c(OC)c(C[C@@H](C)OC(=O)c7ccc(C(=O)OC)cc7)c(c2c34)c65)cc1 [Compound 28, 14,17-bis-O-p-methoxycarbonylbenzoyl UCN-1028D] | 0.068 (≈ 0.0777 µM) | 0.084 (≈ 0.096 µM) | – | – |
| COc1c(C[C@@H](C)OC(=O)c2ccc(C)cc2)c2c3c(C[C@@H](C)OC(=O)c4ccc(C)cc4)c(OC)c(=O)c4c(O)cc(OC)c(c5c(OC)cc(O)c(c1=O)c52)c43 [Compound 29, 14,17-bis-O-p-methylbenzoyl UCN-1028D] | 0.022 (≈ 0.028 µM) | 0.06 (≈ 0.0763 µM) | – | – |
| COc1c(C[C@@H](C)OC(=O)c2ccc([N+](=O)[O-])cc2)c2c3c(C[C@@H](C)OC(=O)c4ccc([N+](=O)[O-])cc4)c(OC)c(=O)c4c(O)cc(OC)c(c5c(OC)cc(O)c(c1=O)c52)c43 [Compound 30, 14,17-bis-O-p-nitrobenzoyl UCN-1028D] | 0.07 (≈ 0.0825 µM) | 0.11 (≈ 0.13 µM) | – | – |
| COc1c(C[C@@H](C)OC(=O)c2cccc3ccccc23)c2c3c(C[C@@H](C)OC(=O)c4cccc5ccccc45)c(OC)c(=O)c4c(O)cc(OC)c(c5c(OC)cc(O)c(c1=O)c52)c43 [Compound 31, 14,17-di-O-1-naphthoyl UCN-1028D] | 1.5 (≈ 1.75 µM) | 0.19 (≈ 0.221 µM) | – | – |
| COc1c(C[C@@H](C)OC(=O)c2ccc3ccccc3c2)c2c3c(C[C@@H](C)OC(=O)c4ccc5ccccc5c4)c(OC)c(=O)c4c(O)cc(OC)c(c5c(OC)cc(O)c(c1=O)c52)c43 [Compound 32, 14,17-di-O-2-naphthoyl UCN-1028D] | 1.2 (≈ 1.4 µM) | 0.1 (≈ 0.116 µM) | – | – |
| COc1c(C[C@@H](C)OC(=O)c2ccncc2)c2c3c(C[C@@H](C)OC(=O)c4ccncc4)c(OC)c(=O)c4c(O)cc(OC)c(c5c(OC)cc(O)c(c1=O)c52)c43 [Compound 33, 14,17-di-O-isonicotinyl UCN-1028D] | 0.038 (≈ 0.05 µM) | 0.15 (≈ 0.197 µM) | – | – |
| COc1c(C[C@@H](C)OC(=O)c2ccco2)c2c3c(C[C@@H](C)OC(=O)c4ccco4)c(OC)c(=O)c4c(O)cc(OC)c(c5c(OC)cc(O)c(c1=O)c52)c43 [Compound 35, 14,17-di-O-2-furoyl UCN-1028D] | 0.12 (≈ 0.162 µM) | 0.11 (≈ 0.149 µM) | – | – |
| COC(=O)O[C@H](C)Cc1c(OC)c(=O)c2c(O)cc(OC)c3c4c(OC)cc(O)c5c(=O)c(OC)c(C[C@@H](C)OC(=O)OC)c(c1c23)c54 [Compound 36, 14,17-bis-O-methoxycarbonyl UCN-1028D] | 0.13 (≈ 0.195 µM) | 0.29 (≈ 0.435 µM) | – | – |
| COc1c(C[C@@H](C)OC(=O)OCc2ccccc2)c2c3c(C[C@@H](C)OC(=O)OCc4ccccc4)c(OC)c(=O)c4c(O)cc(OC)c(c5c(OC)cc(O)c(c1=O)c52)c43 [Compound 37, 14,17-bis-O-benzyloxycarbonyl UCN-1028D] | 0.04 (≈ 0.0489 µM) | 0.052 (≈ 0.0635 µM) | – | – |
| COc1c(C[C@@H](C)OC(=O)Oc2ccccc2)c2c3c(C[C@@H](C)OC(=O)Oc4ccccc4)c(OC)c(=O)c4c(O)cc(OC)c(c5c(OC)cc(O)c(c1=O)c52)c43 [Compound 38, 14,17-bis-O-phenyloxycarbonyl UCN-1028D] | 0.015 (≈ 0.019 µM) | 0.058 (≈ 0.0733 µM) | – | – |
| COc1c(C[C@@H](C)OS(C)(=O)=O)c2c3c(C[C@@H](C)OS(C)(=O)=O)c(OC)c(=O)c4c(O)cc(OC)c(c5c(OC)cc(O)c(c1=O)c52)c43 [Compound 39, 14,17-bis-O-methanesulfonyl UCN-1028D] | 0.35 (≈ 0.495 µM) | 0.5 (≈ 0.707 µM) | – | – |
| COc1c(C[C@@H](C)OS(=O)(=O)c2ccc(C)cc2)c2c3c(C[C@@H](C)OS(=O)(=O)c4ccc(C)cc4)c(OC)c(=O)c4c(O)cc(OC)c(c5c(OC)cc(O)c(c1=O)c52)c43 [Compound 40, 14,17-bis-O-p-toluenesulfonyl UCN-1028D] | 0.04 (≈ 0.0466 µM) | 0.066 (≈ 0.0768 µM) | – | – |
| CCCNC(=O)O[C@H](C)Cc1c(OC)c(=O)c2c(O)cc(OC)c3c4c(OC)cc(O)c5c(=O)c(OC)c(C[C@@H](C)OC(=O)NCCC)c(c1c23)c54 [Compound 41, 14,17-bis-O-propylaminocarbonyl UCN-1028D] | 0.68 (≈ 0.943 µM) | 0.94 (≈ 1.3 µM) | – | – |
| COc1c(C[C@@H](C)OC(=O)Nc2ccccc2)c2c3c(C[C@@H](C)OC(=O)Nc4ccccc4)c(OC)c(=O)c4c(O)cc(OC)c(c5c(OC)cc(O)c(c1=O)c52)c43 [Compound 42, 14,17-bis-O-phenylaminocarbonyl UCN-1028D] | 0.075 (≈ 0.0951 µM) | 0.021 (≈ 0.0266 µM) | – | – |
| COc1c(C[C@@H](C)O)c2c3c(C[C@@H](C)O)c(OC)c(=O)c4c(O)cc(OC)c(c5c(OC)cc(O)c(c1=O)c52)c43 [Compound 43, UCN-1028 iso-D] | – | 0.74 (≈ 1.34 µM) | 1.0 (≈ 1.82 µM) | – |
| COc1c(C[C@@H](C)OC(=O)c2ccccc2)c2c3c(C[C@@H](C)OC(=O)c4ccccc4)c(OC)c(=O)c4c(O)cc(OC)c(c5c(OC)cc(O)c(c1=O)c52)c43 [Compound 44, 14,17-di-O-benzoyl UCN-1028 iso-D] | – | 0.025 (≈ 0.0329 µM) | – | 0.52 (≈ 0.685 µM) |
| COc1c(C[C@@H](C)O)c2c3c(C[C@@H](C)O)c(OC)c(=O)c4c(O)cc(OC)c(c5c(OC)cc(O)c(c1=O)c52)c43 [Compound 45, UCN-1028D] | – | 3.5 (≈ 6.36 µM) | 2.2 (≈ 4 µM) | – |
